Experimental data published in article PMC3433420 (PLoS ONE, 2012).
Residues, ends and D or L forms follow the SMILES beside them.

Assays:
Test in all cases: In-house protein microarrays (with or without 5 mM DTT), protein named per line
Assay type in all cases: binding
SH2 and PTB domains [1] = biological target: T1, SH2 and PTB domains (Homo sapiens, UniProt P78314); conditions: protein SH3BP2
T1 construct: thioredoxin; made in house; host or cells: BL21(DE3)pLysS E. coli
T1 sequence (P78314 1-561): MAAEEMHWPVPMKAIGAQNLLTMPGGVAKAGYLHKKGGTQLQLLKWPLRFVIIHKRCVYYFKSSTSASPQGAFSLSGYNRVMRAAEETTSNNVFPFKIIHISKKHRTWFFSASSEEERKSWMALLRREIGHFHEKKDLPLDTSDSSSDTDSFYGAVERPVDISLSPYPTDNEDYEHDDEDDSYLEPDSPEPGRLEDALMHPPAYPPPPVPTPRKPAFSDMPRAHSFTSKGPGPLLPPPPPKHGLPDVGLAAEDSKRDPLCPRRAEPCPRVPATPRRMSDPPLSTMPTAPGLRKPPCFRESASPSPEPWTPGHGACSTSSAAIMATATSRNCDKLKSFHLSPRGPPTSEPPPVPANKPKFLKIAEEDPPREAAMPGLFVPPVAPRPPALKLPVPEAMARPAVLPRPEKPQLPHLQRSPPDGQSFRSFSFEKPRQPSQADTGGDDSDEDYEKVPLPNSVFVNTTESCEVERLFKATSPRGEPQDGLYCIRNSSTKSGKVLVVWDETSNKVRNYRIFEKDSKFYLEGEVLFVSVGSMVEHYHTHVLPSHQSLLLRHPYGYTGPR
In short: (§1)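 KD values come from rhodamine fluorescence of duplicate spots after subtraction of a thioredoxin control. Domains were printed at ~40 µM on aldehyde slides, blocked 1 h at room temperature in pH 7.8 HEPES/KCl buffer with 5 mM DTT and 1% BSA, then peptide-probed.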

SH2 and PTB domains [2] = biological target: T2, SH2 and PTB domains (Homo sapiens, UniProt Q7M4L6); conditions: protein SHF
T2 construct: thioredoxin; made in house; host or cells: BL21(DE3)pLysS E. coli
In short: as §1

SH2 and PTB domains [3] = biological target: T3, SH2 and PTB domains (Homo sapiens, UniProt P00519); conditions: protein ABL1
T3 construct: thioredoxin; made in house; host or cells: BL21(DE3)pLysS E. coli
In short: as §1

SH2 and PTB domains [4] = biological target: T4, SH2 and PTB domains (Homo sapiens, UniProt P51813); conditions: protein BMX
T4 construct: thioredoxin; made in house; host or cells: BL21(DE3)pLysS E. coli
T4 sequence (P51813 1-675): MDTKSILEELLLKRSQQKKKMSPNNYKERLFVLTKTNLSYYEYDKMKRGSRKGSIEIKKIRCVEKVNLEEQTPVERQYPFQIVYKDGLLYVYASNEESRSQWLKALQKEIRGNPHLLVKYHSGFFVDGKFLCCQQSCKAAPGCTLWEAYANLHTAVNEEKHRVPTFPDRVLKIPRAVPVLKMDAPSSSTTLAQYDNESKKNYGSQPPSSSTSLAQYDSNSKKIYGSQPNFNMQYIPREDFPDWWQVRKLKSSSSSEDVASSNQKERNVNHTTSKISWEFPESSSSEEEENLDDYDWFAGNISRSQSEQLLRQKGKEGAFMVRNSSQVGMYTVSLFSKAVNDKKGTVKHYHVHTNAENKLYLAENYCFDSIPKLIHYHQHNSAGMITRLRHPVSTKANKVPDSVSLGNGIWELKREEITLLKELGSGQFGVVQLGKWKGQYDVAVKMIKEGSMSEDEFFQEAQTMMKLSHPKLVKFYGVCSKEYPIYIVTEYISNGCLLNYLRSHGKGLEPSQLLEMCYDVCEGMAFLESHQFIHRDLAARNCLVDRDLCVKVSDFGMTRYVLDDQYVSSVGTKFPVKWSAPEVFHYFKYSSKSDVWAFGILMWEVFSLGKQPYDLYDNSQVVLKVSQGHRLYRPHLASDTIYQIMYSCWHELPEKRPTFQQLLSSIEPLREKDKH
In short: as §1

SH2 and PTB domains [5] = biological target: T5, SH2 and PTB domains (Homo sapiens, UniProt P43403)
T5 construct: thioredoxin; made in house; host or cells: BL21(DE3)pLysS E. coli
T5 sequence (P43403 1-619): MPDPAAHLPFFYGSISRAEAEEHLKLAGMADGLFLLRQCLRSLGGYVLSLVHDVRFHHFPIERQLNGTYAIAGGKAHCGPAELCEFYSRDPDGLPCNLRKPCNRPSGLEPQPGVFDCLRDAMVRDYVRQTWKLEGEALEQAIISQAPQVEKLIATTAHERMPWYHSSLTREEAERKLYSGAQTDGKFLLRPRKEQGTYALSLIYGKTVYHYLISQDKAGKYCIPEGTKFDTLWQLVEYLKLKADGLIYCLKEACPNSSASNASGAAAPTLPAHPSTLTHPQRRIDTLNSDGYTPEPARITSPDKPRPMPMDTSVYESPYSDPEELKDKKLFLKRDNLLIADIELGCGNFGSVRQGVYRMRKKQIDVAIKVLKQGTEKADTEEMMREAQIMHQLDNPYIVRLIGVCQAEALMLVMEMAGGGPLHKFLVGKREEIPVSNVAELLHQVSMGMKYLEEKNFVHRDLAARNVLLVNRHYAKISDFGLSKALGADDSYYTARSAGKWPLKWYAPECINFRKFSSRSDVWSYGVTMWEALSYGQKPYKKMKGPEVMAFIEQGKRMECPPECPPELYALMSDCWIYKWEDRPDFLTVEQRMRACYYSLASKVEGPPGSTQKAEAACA
In short: as §1

[6] = PM assay replicate # 39307, array fabrication # 39286
[7] = PM assay replicate # 39337, array fabrication # 39329
[8] = PM assay replicate # 39351, array fabrication # 39336
[9] = PM assay replicate # 39352, array fabrication # 39336
[10] = PM assay replicate # 39336, array fabrication # 39329

T3 sequence (P00519 whole entry, the tested form may be a part): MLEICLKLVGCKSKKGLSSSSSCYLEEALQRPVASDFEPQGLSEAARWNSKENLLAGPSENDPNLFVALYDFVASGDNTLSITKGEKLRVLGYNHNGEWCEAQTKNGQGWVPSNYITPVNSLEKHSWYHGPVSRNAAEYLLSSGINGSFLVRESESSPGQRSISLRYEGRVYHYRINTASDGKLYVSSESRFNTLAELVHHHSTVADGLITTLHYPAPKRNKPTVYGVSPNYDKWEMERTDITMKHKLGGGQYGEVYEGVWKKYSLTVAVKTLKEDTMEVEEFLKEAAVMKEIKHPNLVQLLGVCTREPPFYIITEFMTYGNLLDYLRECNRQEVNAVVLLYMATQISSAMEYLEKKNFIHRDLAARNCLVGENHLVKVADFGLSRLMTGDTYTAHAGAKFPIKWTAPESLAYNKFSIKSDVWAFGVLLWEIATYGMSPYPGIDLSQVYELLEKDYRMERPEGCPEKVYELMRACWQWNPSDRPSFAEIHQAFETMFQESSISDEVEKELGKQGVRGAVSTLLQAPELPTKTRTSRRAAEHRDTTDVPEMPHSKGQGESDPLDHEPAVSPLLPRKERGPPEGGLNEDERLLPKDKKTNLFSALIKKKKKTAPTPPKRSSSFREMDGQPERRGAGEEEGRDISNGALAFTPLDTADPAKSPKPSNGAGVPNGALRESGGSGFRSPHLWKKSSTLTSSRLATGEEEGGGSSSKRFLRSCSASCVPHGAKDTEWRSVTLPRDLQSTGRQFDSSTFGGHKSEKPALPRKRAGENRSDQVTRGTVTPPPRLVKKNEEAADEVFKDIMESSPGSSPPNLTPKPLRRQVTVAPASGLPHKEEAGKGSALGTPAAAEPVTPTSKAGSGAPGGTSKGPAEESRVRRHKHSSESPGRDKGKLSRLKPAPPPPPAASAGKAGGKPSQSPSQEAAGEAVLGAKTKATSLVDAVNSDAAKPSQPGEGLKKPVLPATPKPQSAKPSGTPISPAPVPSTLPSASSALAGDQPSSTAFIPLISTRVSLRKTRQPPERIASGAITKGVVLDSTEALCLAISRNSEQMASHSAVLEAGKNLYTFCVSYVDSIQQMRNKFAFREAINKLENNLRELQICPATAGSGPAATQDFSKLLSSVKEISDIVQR
T2 sequence (Q7M4L6 whole entry, the tested form may be a part): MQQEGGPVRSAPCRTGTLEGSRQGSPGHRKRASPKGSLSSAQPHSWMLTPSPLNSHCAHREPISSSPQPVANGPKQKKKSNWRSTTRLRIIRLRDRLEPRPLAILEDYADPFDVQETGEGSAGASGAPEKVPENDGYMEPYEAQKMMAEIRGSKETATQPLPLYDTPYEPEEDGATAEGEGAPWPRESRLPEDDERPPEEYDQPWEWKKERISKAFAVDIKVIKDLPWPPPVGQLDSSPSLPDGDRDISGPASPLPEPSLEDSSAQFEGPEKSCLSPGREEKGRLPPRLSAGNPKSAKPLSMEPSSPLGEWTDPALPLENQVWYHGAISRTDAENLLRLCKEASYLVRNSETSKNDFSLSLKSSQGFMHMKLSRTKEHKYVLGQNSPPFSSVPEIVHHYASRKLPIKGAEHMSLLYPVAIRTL

Structure (SMILES)	Kd (SH2 and PTB domains [1]; [6]) [µM]	Kd (SH2 and PTB domains [1]; [7]) [µM]	Kd (SH2 and PTB domains [1]; [8]) [µM]	Kd (SH2 and PTB domains [1]; [9]) [µM]	Kd (SH2 and PTB domains [2]; [7]) [µM]	Kd (SH2 and PTB domains [2]; [6]) [µM]	Kd (SH2 and PTB domains [3]; [6]) [µM]	Kd (SH2 and PTB domains [4]; [6]) [µM]	Kd (SH2 and PTB domains [5]; protein ZAP70-C, PM assay replicate # 39352, array fabrication # 39336) [µM]	Kd (SH2 and PTB domains [3]; [10]) [µM]	Kd (SH2 and PTB domains [3]; [7]) [µM]	Kd (SH2 and PTB domains [4]; [10]) [µM]	Kd (SH2 and PTB domains [4]; [7]) [µM]	Kd (SH2 and PTB domains [5]; protein ZAP70-NC, PM assay replicate # 39336, array fabrication # 39329) [µM]	Kd (SH2 and PTB domains [5]; protein ZAP70-NC, PM assay replicate # 39337, array fabrication # 39329) [µM]
CCN(CC)c1ccc2c(-c3ccc(C(=O)N[C@@H](CC(N)=O)C(=O)NCC(=O)N4CCC[C@H]4C(=O)N4CCC[C@H]4C(=O)N[C@@H](CCCCN)C(=O)N[C@@H](C)C(=O)N[C@@H](CCC(=O)O)C(=O)N[C@@H](CC(=O)O)C(=O)N[C@@H](CCC(=O)O)C(=O)N[C@@H](Cc4ccc(OP(=O)(O)O)cc4)C(=O)N[C@H](C(=O)N[C@@H](CC(N)=O)C(=O)N[C@@H](CCC(=O)O)C(=O)N4CCC[C@H]4C(=O)N[C@@H](CC(C)C)C(=O)N[C@@H](Cc4ccc(O)cc4)C(=O)N[C@@H](CC(C)C)C(=O)N[C@@H](CC(=O)O)C(=O)O)C(C)C)cc3C(=O)[O-])c3ccc(=[N+](CC)CC)cc-3oc2c1 [ErbB4 1202 (18-mer)] (HELM PEPTIDE1{[CCN(CC)c1ccc2c(-c3ccc(C(=O)[*:2])cc3C(=O)[O-])c3ccc(=[N+](CC)CC)cc-3oc2c1].N.G.P.P.K.A.E.D.E.[O=C([C@H](Cc1ccc(OP(=O)(O)O)cc1)N[*:1])[*:2]].V.N.E.P.L.Y.L.D}$$$$V2.0)	0.50	2.06	1.61	15.93	11.92	–	–	–	–	–	–	–	–	–	–
CC[C@H](C)[C@H](NC(=O)[C@H](CC(N)=O)NC(=O)[C@H](CC(N)=O)NC(=O)[C@H](CCCCN)NC(=O)[C@H](CC(C)C)NC(=O)[C@H](Cc1ccc(OP(=O)(O)O)cc1)NC(=O)[C@H](CCC(=O)O)NC(=O)[C@H](C)NC(=O)[C@H](CCCCN)NC(=O)CNC(=O)[C@H](CC(C)C)NC(=O)[C@@H](NC(=O)[C@H](CC(N)=O)NC(=O)[C@H](C)NC(=O)[C@@H](N)Cc1ccccc1)[C@@H](C)O)C(=O)N[C@@H](CC(C)C)C(=O)N[C@@H](CO)C(=O)N[C@@H](CC(=O)O)C(=O)O [ErbB4 pY1221 (18-mer)] (HELM PEPTIDE1{F.A.N.T.L.G.K.A.E.[O=C([C@H](Cc1ccc(OP(=O)(O)O)cc1)N[*:1])[*:2]].L.K.N.N.I.L.S.D}$$$$V2.0)	1.24	–	2.36	10.86	–	1.19	0.25	0.42	0.79	–	–	–	–	–	–
CC(C)C[C@H](NC(=O)[C@@H]1CCCN1C(=O)[C@H](C)NC(=O)[C@@H](NC(=O)[C@H](Cc1ccc(OP(=O)(O)O)cc1)NC(=O)CNC(=O)[C@H](CC(=O)O)NC(=O)[C@@H](NC(=O)[C@@H](N)CCC(=O)O)[C@@H](C)O)C(C)C)C(=O)N[C@H](C(=O)N[C@@H](CS)C(=O)N[C@@H](CO)C(=O)N[C@@H](CC(=O)O)C(=O)O)[C@@H](C)O [ErbB2 pY1127]	–	–	–	–	–	–	–	–	–	0.30	0.53	1.60	5.39	2.41	2.01
